From ChEMBL document CHEMBL1201862, “PubChem BioAssay data set” (2004)
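Cultured in 96-well plates, cells were exposed to test compound for 48 hours across five concentrations. GI50: concentration for 50% inhibition of growth.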 Calls of active or inactive are those of the source. No stated cut-off is given here; in the data, active = GI50 up to about 1.1 µM and inactive = higher.

Experiments:
Assay in all cases: NCI anticancer screen, dose series, 48 h
[1] = tested on: NCI-H460
[2] = tested on: SK-MEL-5
[3] = tested on: TK-10
[4] = tested on: NCI/ADR-RES
[5] = tested on: M14
[6] = tested on: IGROV-1
[7] = tested on: MDA-MB-435
[8] = tested on: SW-620
[9] = tested on: SNB-75
[10] = tested on: CCRF-CEM
[11] = tested on: HL-60
[12] = tested on: SF-295
[13] = tested on: OVCAR-8
[14] = tested on: UACC-257
[15] = tested on: ACHN
[16] = tested on: A549
[17] = tested on: CAKI-1
[18] = tested on: SN12C
[19] = tested on: DU-145
[20] = tested on: NCI-H226

| SMILES | GI50 [1] | GI50 [2] | GI50 [3] | GI50 [4] | GI50 [5] | GI50 [6] | GI50 [7] | GI50 [8] | GI50 [9] | GI50 [10] | GI50 [11] | GI50 [12] | GI50 [13] | GI50 [14] | GI50 [15] | GI50 [16] | GI50 [17] | GI50 [18] | GI50 [19] | GI50 [20] |
| --- | --- | --- | --- | --- | --- | --- | --- | --- | --- | --- | --- | --- | --- | --- | --- | --- | --- | --- | --- | --- |
| CC(=O)Oc1ccc(C2SCc3nc4ccccc4n32)cc1 (stereo not given) | 41.1 µM (inactive) | 24.7 µM (inactive) | 35.2 µM (inactive) | 14.8 µM (inactive) | 48.6 µM (inactive) | 30.7 µM (inactive) | 5.48 µM (inactive) | 35.8 µM (inactive) | 19.9 µM (inactive) | 26.5 µM (inactive) | 10.6 µM (inactive) | 21.7 µM (inactive) | 18.7 µM (inactive) | 33.5 µM (inactive) | 30.8 µM (inactive) | 32.2 µM (inactive) | 24.4 µM (inactive) | 49.8 µM (inactive) | 51.5 µM (inactive) |  |
| Cc1ccc2ccccc2c1NC1=NCCO1 | 33.7 µM (inactive) | 81.5 µM (inactive) | > 100 µM (inactive) | > 100 µM (inactive) | > 100 µM (inactive) | > 100 µM (inactive) | > 100 µM (inactive) | > 100 µM (inactive) | > 100 µM (inactive) | 70.3 µM (inactive) | 58.5 µM (inactive) | > 100 µM (inactive) | > 100 µM (inactive) | 57.3 µM (inactive) | 76.6 µM (inactive) | > 100 µM (inactive) |  | > 100 µM (inactive) | > 100 µM (inactive) | 20.2 µM (inactive) |
| COC1C(C)OC(OC2CC(C)(O)Cc3cc4c(c(O)c32)C(=O)c2c(O)cc3c(c2C4=O)OC2OC3(C)C(O)C(N(C)C)C2O)C(OC)C1(C)OC (stereo not given) | 0.00345 µM (active) | 0.0237 µM (active) | 0.00527 µM (active) | 2.21 µM (inactive) | 0.00479 µM (active) | 0.0197 µM (active) | 0.00102 µM (active) | 0.00457 µM (active) | 0.0165 µM (active) | 0.00475 µM (active) | 0.00541 µM (active) | 0.0047 µM (active) | 0.00496 µM (active) | 0.00553 µM (active) |  | 0.00498 µM (active) |  | 0.0378 µM (active) | 0.000809 µM (active) | 0.0508 µM (active) |
| S=C1c2ccccc2N=C(NC2CCCC2)C2CSCN12 (stereo not given) | 61.1 µM (inactive) | 49.2 µM (inactive) | > 100 µM (inactive) | > 100 µM (inactive) | 91.8 µM (inactive) | > 100 µM (inactive) | 76 µM (inactive) | > 100 µM (inactive) |  | 32 µM (inactive) |  | > 100 µM (inactive) | > 100 µM (inactive) | 51.5 µM (inactive) | > 100 µM (inactive) | > 100 µM (inactive) | > 100 µM (inactive) | > 100 µM (inactive) | > 100 µM (inactive) | 88.5 µM (inactive) |
| Oc1c(Cl)c(Cl)c(O)c(CCNc2nccs2)c1Cl | 20.8 µM (inactive) | 2.2 µM (inactive) | 11.7 µM (inactive) | 19.6 µM (inactive) | 15.7 µM (inactive) | 3.27 µM (inactive) | 16.1 µM (inactive) | 3.3 µM (inactive) | 20.5 µM (inactive) | 3.74 µM (inactive) | 6.84 µM (inactive) | 19.1 µM (inactive) | 16.6 µM (inactive) | 20 µM (inactive) | 6.44 µM (inactive) | 21.6 µM (inactive) | 11.4 µM (inactive) | 19 µM (inactive) | 3.67 µM (inactive) |  |
| CC1(C)OCC(C(O)C2OC(C)(C)OC2C=O)O1 (stereo not given) |  | > 100 µM (inactive) | > 100 µM (inactive) | > 100 µM (inactive) | > 100 µM (inactive) | > 100 µM (inactive) | > 100 µM (inactive) | > 100 µM (inactive) | > 100 µM (inactive) | > 100 µM (inactive) |  | > 100 µM (inactive) | > 100 µM (inactive) | > 100 µM (inactive) | > 100 µM (inactive) | > 100 µM (inactive) |  | > 100 µM (inactive) | > 100 µM (inactive) | > 100 µM (inactive) |
